Test results reported in BigSolDB 2.1.

CO[C@@]1(NC(=O)CSCC#N)C(=O)N2C(C(=O)[O-])=C(CSc3nnnn3C)CS[C@@H]21.[Na+]
solubility (mole fraction)
Conditions	in cyclohexane	in ethanol	in ethyl acetate	in isopropanol	in n-butanol	in n-butyl acetate	in n-hexane	in n-pentanol	in n-propanol
278.15 K	1.31e-06	0.000471	5.31e-05	6.74e-05	4.93e-05	3.86e-05	1.6e-06	3.1e-05	6.12e-05
283.15 K	1.75e-06	0.000508	6.03e-05	7.58e-05	5.69e-05	4.39e-05	2.1e-06	3.94e-05	7.02e-05
288.15 K	2.1e-06	0.000542	6.94e-05	8.93e-05	6.42e-05	5.19e-05	2.59e-06	4.82e-05	8.12e-05
293.15 K	2.5e-06	0.000599	8.61e-05	0.000117	8.26e-05	6.35e-05	2.98e-06	5.84e-05	0.000105
298.15 K	3.1e-06	0.000685	0.000105	0.00014	9.89e-05	7.49e-05	3.5e-06	6.75e-05	0.000125
303.15 K	3.6e-06	0.000818	0.000137	0.00017	0.000124	8.96e-05	4.1e-06	8e-05	0.000153
308.15 K	4.62e-06	0.00105	0.000168	0.00021	0.000152	0.000109	4.92e-06	9.75e-05	0.000191
313.15 K	5.69e-06	0.00128	0.000221	0.000286	0.000196	0.000124	6e-06	0.000113	0.000244
